Earlier results on one compound are cited in patent publication US8821924B2, “Rhein or diacerein compositions” (Wockhardt Ltd., priority 2007, dated 2014).

The conditions of the data set: water, alcohols, acetone, dichloromethane and chloroform.

On to `CC(=O)Oc1cccc2c1C(=O)c1c(OC(C)=O)cc(C(=O)O)cc1C2=O` [Diacerein, 4,5-bis(acetyloxy)9,10-dihydro-4,5-dihydroxy-9,10-dioxo-2-anthracenecarboxylic acid], for which the solubility in solvents entry is recorded as “practically insoluble”.
